Measurements: patent US11919886B2, “4,9-dioxo-4,9-dihydronaphtho[2,3-B]furan-3-carboxamide derivatives and uses thereof for treating proliferative diseases and infectious diseases” (Academia Sinica, priority 2016, dated 2024)
Values after ≈ are worked out from the molar mass of the structure shown. Like-named read-outs stand apart in the source and are kept apart here.

Legend:
[1] = tested on: CL1-0 (human lung adenocarcinoma cells, EGFR wild type and resistant to gefitinib); assay: SRB cytotoxicity assay, CL1-0; settings: CL1-0, 72 h
[2] = tested on: A549 (adenocarcinomic human alveolar basal epithelial cells); assay: SRB cytotoxicity assay, A549; settings: A549, 72 h
H1975 cells [3] = assay: Cell cycle analysis by propidium iodide flow cytometry; settings: 72 h
MCM2 = molecular target: T1, MCM2 (Homo sapiens, UniProt P49736); assay: MCM2 ubiquitination (Myc-Ub transfection, MCM2 immunoprecipitation); format: cell-based; settings: H1975 co-expressing Myc-Ub, 140 nM, 12 hours
T1 construct: The MCM2 proteins were pulled down by incubating the H1975 lysate with compound 1-conjugated magnetic beads; endogenous in cells; host or cells: H1975
Method: To determine whether Compound 1 triggers MCM2 degradation through promoting MCM2 ubiquitination, Myc-tagged ubiquitin (Myc-Ub) was transfected into H1975 cells treated with or without compound 1 and followed by MCM2 immunoprecipitation. The cells were transiently transfected with pcDNA3-Myc-Ub and treated with or without 140 nM of compound 1 combined with MG132. After 12 hours, the cells were harvested and MCM2 proteins were precipitated with specific anti-MCM2 antibodies. The ubiqiuitination pattern were detected by immunoblotting. IgG served as the antibody control in the immunoprecipitation experiment.

Staphylococcus aureus = assay: MIC, broth micro dilution method; format: cell-based
[4] = tested on: subcutaneous H1975 tumors; assay: H1975 xenograft tumor growth in athymic nude mice (compound 1); format: in vivo; settings: for average tumor size: day 27
Method: Panel (A): The structure of compound 1. Panel(B): A chart showing exemplary results for the cytotoxicity assay of Compound 1-treated cancer cells for 72 hours. […] Panel (C): Photos showing the different tumor sizes and TUNEL assay results between DMSO control and Compound 1-treated mice. H1975 (3×10^6) cells were subcutaneously injected into male nu/nu mice, and daily treated intraperitoneally with Compound I at indicated dose or DMSO for 4 weeks. During the treatment, tumor size and body weights were measured every 3 to 4 days; and the histology was confirmed by H&E staining (left lower panel of panel (C).
Exemplary results are shown in Panel (C) of FIG. 1. […] (Panel (C) of FIG. 1). In addition, the body weight of the mice was calculated when the tumor size was measured. Serum was also collected, and biological analysis in vitro was performed. […] Inhibition of tumor growth of Compound 1 with low cytotoxicity in vivo was observed.

H1975 cells [5] = assay: Double thymidine block, S phase progression by flow cytometry; format: cell-based, human; settings: H1975, release from double thymidine block
Method: To evaluate the effects of compound Ion a single round of DNA replication in a cell cycle, H1975 cells were synchronized using a double thymidine block followed by release with DMSO or compound 1-containing medium for 2 to 14 hours. Exemplary results are shown in Panel (C) of FIG. 2. H1975 cells were grown to 60-70% confluence. Then, 2 mM thymidine (Sigma) was added to the cells and incubated for 17 hours. The cells were then washed, and fresh serum-containing medium was added. After 10 hours, thymidine was added again, and the cells were incubated for 17 hours; the cells were then washed with PBS, replaced with fresh serum-containing medium, and the data were collected at the indicated time points. Through flow cytometry analysis, the control cells were observed as synchronized in the G0-G1 phase from 0 hours, increased in the S phase from 4 to 6 hours, and finally progressed to the G2 phase after 8 hours. However, many of the compound 1-treated cells remained in the S phase at all time points. (Panel (C) of FIG. 2). A double thymidine block was performed and the data were collected at the indicated time points. Compared to DMSO, compound 1-treated H1975 cells required more time for the S phase (approximately 4 hours).

T1 sequence (P49736 whole entry): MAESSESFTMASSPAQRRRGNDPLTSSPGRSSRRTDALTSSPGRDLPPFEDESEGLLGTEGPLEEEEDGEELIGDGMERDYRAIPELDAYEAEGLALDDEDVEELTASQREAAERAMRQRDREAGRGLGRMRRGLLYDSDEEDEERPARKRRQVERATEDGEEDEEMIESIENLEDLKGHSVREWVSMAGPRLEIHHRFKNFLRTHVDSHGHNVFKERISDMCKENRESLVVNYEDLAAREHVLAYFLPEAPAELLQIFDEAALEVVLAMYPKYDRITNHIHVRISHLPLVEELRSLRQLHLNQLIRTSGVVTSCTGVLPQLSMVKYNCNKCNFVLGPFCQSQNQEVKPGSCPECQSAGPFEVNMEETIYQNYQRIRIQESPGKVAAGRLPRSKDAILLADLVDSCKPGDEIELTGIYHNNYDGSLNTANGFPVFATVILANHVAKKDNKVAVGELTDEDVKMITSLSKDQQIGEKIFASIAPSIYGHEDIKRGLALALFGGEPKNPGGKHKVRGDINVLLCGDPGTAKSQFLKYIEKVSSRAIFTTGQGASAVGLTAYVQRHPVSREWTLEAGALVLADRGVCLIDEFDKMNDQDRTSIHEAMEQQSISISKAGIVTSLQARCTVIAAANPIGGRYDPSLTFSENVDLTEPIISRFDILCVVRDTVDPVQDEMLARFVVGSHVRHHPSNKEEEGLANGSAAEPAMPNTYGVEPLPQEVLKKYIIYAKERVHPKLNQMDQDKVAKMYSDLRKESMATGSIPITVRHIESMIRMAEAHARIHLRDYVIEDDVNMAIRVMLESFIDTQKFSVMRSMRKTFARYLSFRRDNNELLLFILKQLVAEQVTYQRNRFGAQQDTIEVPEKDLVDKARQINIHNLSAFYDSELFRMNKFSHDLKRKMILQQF

Cc1oc2c(c1C(=O)NCCCn1ccnc1)C(=O)c1ccccc1C2=O [Compound 1, N-(3-(1H-Imidazol-1-yl)propyl)-2-methyl-4,9-dioxo-4,9-dihydronaphtho [2,3-b]furan-3-carboxamide]
IC50 [1]: 123 nM
IC50 [2]: 53 nM
Phase(%) G1 (H1975 cells [3]; H1975, 35 nM): 70%
Phase(%) G2/M (H1975 cells [3]; H1975, 35 nM): 23%
Phase(%) S (H1975 cells [3]; H1975, 35 nM): 4%
Phase(%) subG1 (H1975 cells [3]; H1975, 35 nM): 1%
Phase(%) G1 (H1975 cells [3]; H1975, 70 nM): 58%
Phase(%) G2/M (H1975 cells [3]; H1975, 70 nM): 31%
Phase(%) S (H1975 cells [3]; H1975, 70 nM): 7%
Phase(%) subG1 (H1975 cells [3]; H1975, 70 nM): 1%
Phase(%) G1 (H1975 cells [3]; H1975, 140 nM): 39%
Phase(%) G2/M (H1975 cells [3]; H1975, 140 nM): 38%
Phase(%) S (H1975 cells [3]; H1975, 140 nM): 18%
Phase(%) subG1 (H1975 cells [3]; H1975, 140 nM): 4%
Ubiquitylated MCM2 (MCM2): detected in treated cells
MIC (Staphylococcus aureus; ATCC 2921 / MSSA, read-out: MIC (μg/ml) 100%, strain ATCC2921 3, MSSA): 4 µg/mL (≈ 11 µM)
MIC (Staphylococcus aureus; ATCC 2921 / MSSA, strain ATCC2921 3, MSSA, read-out: MIC (μg/ml) 50%): 1 µg/mL (≈ 2.75 µM)
MIC (Staphylococcus aureus; ATCC 12598 / MSSA, read-out: MIC (μg/ml) 100%, strain ATCC12598, MSSA): 4 µg/mL (≈ 11 µM)
MIC (Staphylococcus aureus; ATCC 12598 / MSSA, strain ATCC12598, MSSA, read-out: MIC (μg/ml) 50%): 0.5 µg/mL (≈ 1.38 µM)
MIC (Staphylococcus aureus; ATCC 25923 / MSSA, read-out: MIC (μg/ml) 100%, strain ATCC25923, MSSA): 4 µg/mL (≈ 11 µM)
MIC (Staphylococcus aureus; ATCC 25923 / MSSA, strain ATCC25923, MSSA, read-out: MIC (μg/ml) 50%): 2 µg/mL (≈ 5.5 µM)
MIC (Staphylococcus aureus; ATCC 33592 / MRSA, read-out: MIC (μg/ml) 100%, strain ATCC33592, MRSA (SCCmec III)): 1 µg/mL (≈ 2.75 µM)
MIC (Staphylococcus aureus; ATCC 33592 / MRSA, strain ATCC33592, MRSA (SCCmec III), read-out: MIC (μg/ml) 50%): 0.5 µg/mL (≈ 1.38 µM)
MIC (Staphylococcus aureus; ATCC 49476 / MRSA, read-out: MIC (μg/ml) 100%, strain ATCC49476, MRSA (SCCmec III)): 1 µg/mL (≈ 2.75 µM)
MIC (Staphylococcus aureus; ATCC 49476 / MRSA, strain ATCC49476, MRSA (SCCmec III), read-out: MIC (μg/ml) 50%): 0.5 µg/mL (≈ 1.38 µM)
MIC (Staphylococcus aureus; MRSA, range over MRSA strains, broth micro dilution, read-out: MIC): 1 to 4 µg/mL (≈ 2.75 to 11 µM)
MIC (Staphylococcus aureus; MRSA, read-out: MIC (μg/ml) 100%, strain NTUH-1-2868, MRSA (SCCmec III, ST239, FA-R), clinical isolate): 1 µg/mL (≈ 2.75 µM)
MIC (Staphylococcus aureus; MRSA, read-out: MIC (μg/ml) 100%, strain NTUH-104-2, MRSA (SCCmec VT, ST45), clinical isolate): 1 µg/mL (≈ 2.75 µM)
MIC (Staphylococcus aureus; MRSA, read-out: MIC (μg/ml) 100%, strain NTUH-406-2, MRSA (SCCmec IV, spa type t008), clinical isolate): 4 µg/mL (≈ 11 µM)
MIC (Staphylococcus aureus; MRSA, read-out: MIC (μg/ml) 100%, strain NTUH-560, MRSA (SCCmec II, GM-S), clinical isolate): 4 µg/mL (≈ 11 µM)
MIC (Staphylococcus aureus; MRSA, read-out: MIC (μg/ml) 100%, strain NTUH-2102, MRSA (SCCmec II, ST5, FA-S), clinical isolate): 4 µg/mL (≈ 11 µM)
MIC (Staphylococcus aureus; MRSA, read-out: MIC (μg/ml) 100%, strain NTUH-2417, MRSA (SCCmec III, SXT-S), clinical isolate): 1 µg/mL (≈ 2.75 µM)
MIC (Staphylococcus aureus; MRSA, read-out: MIC (μg/ml) 100%, strain NTUH-2643, MRSA (SCCmec IV, spa type to 15), clinical isolate): 4 µg/mL (≈ 11 µM)
MIC (Staphylococcus aureus; MRSA, read-out: MIC (μg/ml) 100%, strain NTUH-2967, MRSA (SCCmec VT, ST1), clinical isolate): 4 µg/mL (≈ 11 µM)
MIC (Staphylococcus aureus; MRSA, read-out: MIC (μg/ml) 100%, strain NTUH-4400, MRSA (SCCmec II, ST5, FA-R), clinical isolate): 2 µg/mL (≈ 5.5 µM)
MIC (Staphylococcus aureus; MRSA, read-out: MIC (μg/ml) 100%, strain NTUH-4578, MRSA (SCCmec IV, ST59), clinical isolate): 4 µg/mL (≈ 11 µM)
MIC (Staphylococcus aureus; MRSA, read-out: MIC (μg/ml) 100%, strain NTUH-8038, MRSA (SCCmec IV, spa type t189), clinical isolate): 4 µg/mL (≈ 11 µM)
MIC (Staphylococcus aureus; MRSA, read-out: MIC (μg/ml) 100%, strain NTUH-9383, MRSA (SCCmec III, ST239, FA-R), clinical isolate): 1 µg/mL (≈ 2.75 µM)
MIC (Staphylococcus aureus; MRSA, read-out: MIC (μg/ml) 100%, strain PM1, MRSA (SCCmec VT, ST59), clinical isolate): 4 µg/mL (≈ 11 µM)
MIC (Staphylococcus aureus; MRSA, read-out: MIC (μg/ml) 100%, strain TSHR17, MRSA (SCCmec VT)): 4 µg/mL (≈ 11 µM)
MIC (Staphylococcus aureus; MRSA, strain NTUH-1-2868, MRSA (SCCmec III, ST239, FA-R), clinical isolate, read-out: MIC (μg/ml) 50%): 0.5 µg/mL (≈ 1.38 µM)
MIC (Staphylococcus aureus; MRSA, strain NTUH-104-2, MRSA (SCCmec VT, ST45), clinical isolate, read-out: MIC (μg/ml) 50%): 0.5 µg/mL (≈ 1.38 µM)
MIC (Staphylococcus aureus; MRSA, strain NTUH-406-2, MRSA (SCCmec IV, spa type t008), clinical isolate, read-out: MIC (μg/ml) 50%): 0.5 µg/mL (≈ 1.38 µM)
MIC (Staphylococcus aureus; MRSA, strain NTUH-560, MRSA (SCCmec II, GM-S), clinical isolate, read-out: MIC (μg/ml) 50%): 1 µg/mL (≈ 2.75 µM)
MIC (Staphylococcus aureus; MRSA, strain NTUH-2102, MRSA (SCCmec II, ST5, FA-S), clinical isolate, read-out: MIC (μg/ml) 50%): 1 µg/mL (≈ 2.75 µM)
MIC (Staphylococcus aureus; MRSA, strain NTUH-2417, MRSA (SCCmec III, SXT-S), clinical isolate, read-out: MIC (μg/ml) 50%): 0.5 µg/mL (≈ 1.38 µM)
MIC (Staphylococcus aureus; MRSA, strain NTUH-2643, MRSA (SCCmec IV, spa type to 15), clinical isolate, read-out: MIC (μg/ml) 50%): 1 µg/mL (≈ 2.75 µM)
MIC (Staphylococcus aureus; MRSA, strain NTUH-2967, MRSA (SCCmec VT, ST1), clinical isolate, read-out: MIC (μg/ml) 50%): 1 µg/mL (≈ 2.75 µM)
MIC (Staphylococcus aureus; MRSA, strain NTUH-4400, MRSA (SCCmec II, ST5, FA-R), clinical isolate, read-out: MIC (μg/ml) 50%): 1 µg/mL (≈ 2.75 µM)
MIC (Staphylococcus aureus; MRSA, strain NTUH-4578, MRSA (SCCmec IV, ST59), clinical isolate, read-out: MIC (μg/ml) 50%): 1 µg/mL (≈ 2.75 µM)
MIC (Staphylococcus aureus; MRSA, strain NTUH-8038, MRSA (SCCmec IV, spa type t189), clinical isolate, read-out: MIC (μg/ml) 50%): 1 µg/mL (≈ 2.75 µM)
MIC (Staphylococcus aureus; MRSA, strain NTUH-9383, MRSA (SCCmec III, ST239, FA-R), clinical isolate, read-out: MIC (μg/ml) 50%): 0.5 µg/mL (≈ 1.38 µM)
MIC (Staphylococcus aureus; MRSA, strain PM1, MRSA (SCCmec VT, ST59), clinical isolate, read-out: MIC (μg/ml) 50%): 1 µg/mL (≈ 2.75 µM)
MIC (Staphylococcus aureus; MRSA, strain TSHR17, MRSA (SCCmec VT), read-out: MIC (μg/ml) 50%): 0.5 µg/mL (≈ 1.38 µM)
average tumor size ([4]; 1 mg/kg daily intraperitoneal): 701.2±196.5 mm^3
body weight and serum biological analysis, control group vs compound treatment group ([4]; 1 mg/kg or 4 mg/kg daily intraperitoneal, 4 weeks): Few differences
average tumor size ([4]; 4 mg/kg daily intraperitoneal): 518.0±93.0 mm^3
more time required for the S phase compared to DMSO (H1975 cells [5]): approximately 4 hours
